Assay results from patent US11408891B2, “Imaging agent” (University of Lancaster, priority 2017, dated 2022).
Where two headings read alike, the source gives them in different places.

Key:
[1] = tested on: peroxisomes (pDsRed2-Peroxi Vector labelled compartments); details: photo-bleaching at 514 nm, complex excited at 405 nm (FIG. 4)
Experimental: FIG. 4: Co-localisation experiment with Clontech pDsRed2-Peroxi Vector. […] Fluorescence micrographs of co-localisation experiment i) Excited at 405 nm pre-photo-bleaching; ii) excited at 514 nm pre photo-bleaching iii) excited at 514 nm post photo-bleaching; iv) Excited at 405 nm post photo-bleaching. HaCaT cells were grown on glass coverslips under the same conditions as in described in Steel 2015 referred to herein. […] The coverslips were then washed in PBS and mounted by inversion on a glass slide. Images were captured on a Zeiss LSM 850 Meta laser scanning confocal microscope.

[2] = tested on: HaCaT cells; details: HaCaT cells with and without microtubule-depolymerising levels of nocodazole (FIG. 2)
Experimental: HaCaT cells were grown on glass coverslips under the same conditions as in described in Steel 2015 referred to herein. […] The coverslips were then washed in PBS and mounted by inversion on a glass slide. Images were captured on a Zeiss LSM 850 Meta laser scanning confocal microscope.

[3] = tested on: peroxisomes in HaCaT cells
Experimental: FIG. 1: Chemical structure of a compound of the invention (and the compound referred to in the figures for example as the platinum complex) and confocal micrograph of HaCaT cells after 10 minutes exposure to 25 μg/ml of the platinum complex (ex 405 nm, emission 505-740 nm). […] A compound of the invention may be prepared as a salt, for example as a sodium salt as described herein, and is used as an imaging agent in a buffer solution. HaCaT cells were grown on glass coverslips under the same conditions as in described in Steel 2015 referred to herein. […] The coverslips were then washed in PBS and mounted by inversion on a glass slide. Images were captured on a Zeiss LSM 850 Meta laser scanning confocal microscope.

[4] = PBS containing compound at 125 μg/ml, 10 minutes at 4° C.

Substance: PtMe3bpy-S-glutathione [compound A]
- co-localisation with peroxisome marker [1]: platinum complex emission was retained in the same cellular compartments
- motility of the stained compartments [2]: microtubule-dependent motility
- staining pattern ([3]; 10 minutes exposure to 25 μg/ml, ex 405 nm, emission 505-740 nm (FIG. 1)): punctate pattern
- staining pattern [3, 4]: punctate staining pattern, characteristic of peroxisomes
- uptake by cells [3, 4]: readily taken up by cells
